According to ChEMBL document CHEMBL3046359, “QSAR and pharmacophore studies of telomerase inhibitors” (Med Chem Res, 2012):

Experiments:
[1] = target: Telomerase reverse transcriptase (Homo sapiens) (UniProt O14746); experiment: Inhibition of telomerase (unknown origin)
[2] = target: Telomerase reverse transcriptase (Homo sapiens) (UniProt O14746); experiment: Inhibition of telomerase in Homo sapiens (human) A549 cells after 24 hr by TRAP assay; assay type: cell-based
[3] = target: Telomerase reverse transcriptase (Homo sapiens) (UniProt O14746); experiment: Inhibition of Homo sapiens (human) telomerase
[4] = target: Telomerase reverse transcriptase (Homo sapiens) (UniProt O14746); experiment: Inhibition of telomerase in Homo sapiens (human) A549 cells by TRAP assay; assay type: cell-based

Telomerase reverse transcriptase (Homo sapiens), sequence (O14746 whole entry): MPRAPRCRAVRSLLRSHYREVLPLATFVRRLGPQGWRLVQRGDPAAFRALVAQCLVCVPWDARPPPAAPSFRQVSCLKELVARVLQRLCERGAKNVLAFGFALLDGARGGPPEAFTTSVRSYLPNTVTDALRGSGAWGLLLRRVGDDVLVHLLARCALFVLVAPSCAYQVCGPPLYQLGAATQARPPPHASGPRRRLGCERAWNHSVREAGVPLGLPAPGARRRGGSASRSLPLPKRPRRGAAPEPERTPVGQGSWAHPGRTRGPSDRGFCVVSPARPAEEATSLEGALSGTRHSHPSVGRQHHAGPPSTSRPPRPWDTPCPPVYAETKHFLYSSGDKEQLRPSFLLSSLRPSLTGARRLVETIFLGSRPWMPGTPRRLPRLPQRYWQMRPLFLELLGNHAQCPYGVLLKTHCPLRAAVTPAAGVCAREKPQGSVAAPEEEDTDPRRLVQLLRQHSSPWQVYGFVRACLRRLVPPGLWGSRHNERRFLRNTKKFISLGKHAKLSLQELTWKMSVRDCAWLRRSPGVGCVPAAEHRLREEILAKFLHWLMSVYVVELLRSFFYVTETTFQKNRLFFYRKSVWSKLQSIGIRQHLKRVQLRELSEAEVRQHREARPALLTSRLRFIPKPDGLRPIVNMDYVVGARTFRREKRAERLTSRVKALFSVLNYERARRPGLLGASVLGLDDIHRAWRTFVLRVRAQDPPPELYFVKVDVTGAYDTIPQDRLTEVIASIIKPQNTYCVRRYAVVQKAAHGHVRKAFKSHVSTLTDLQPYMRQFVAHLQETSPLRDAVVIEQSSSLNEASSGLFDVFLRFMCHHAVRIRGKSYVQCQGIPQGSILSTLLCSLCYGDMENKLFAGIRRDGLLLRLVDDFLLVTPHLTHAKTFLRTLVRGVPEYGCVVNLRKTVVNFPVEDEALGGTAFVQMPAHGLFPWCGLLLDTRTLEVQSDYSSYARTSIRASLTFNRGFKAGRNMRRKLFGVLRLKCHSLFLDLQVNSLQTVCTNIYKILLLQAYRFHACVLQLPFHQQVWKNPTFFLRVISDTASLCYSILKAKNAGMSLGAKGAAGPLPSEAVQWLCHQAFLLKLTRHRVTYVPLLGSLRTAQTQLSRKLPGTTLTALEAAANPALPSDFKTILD

Compound | logIC50 [1] | also measured
CCCNCc1cc2nc3ccccc3cc2c2cc3ccccc3nc12 | 0.16 | –
CN(C)CCc1ccc2nc3c4ccccc4n(CCN(C)C)c3cc2c1 | 1.2 | –
COc1ccc2ccc3c([nH]c4c5ccccc5nc(NCCN(C)C)c34)c2c1 | 0.1 | –
CCN(CC)CCC(=O)Nc1ccc2c(c1)C(=O)c1cc(NC(=O)CCN(CC)CC)ccc1-2 | 1.19 | –
O=C(CCN1CCCCC1)Nc1ccc2cc3ccc(NC(=O)CCN4CCCCC4)cc3nc2c1 | – | logIC50 [2]: 0.45
CN(C)CCCNCc1ccc2nc3ccc4cc5cc(CNCCCN(C)C)ccc5nc4c3cc2c1 | -1.55 | –
CSc1nc(Nc2ccc3nc(C)cc(N(C)C)c3c2)nc(Nc2ccc3nc(C)cc(N(C)C)c3c2)n1 | -1.39 | –
CCN1CCN(CCC(=O)Nc2ccc3c(c2)C(=O)c2cc(NC(=O)CCN4CCN(CC)CC4)ccc2-3)CC1 | 1.23 | –
O=C(O)CCCCCCCCCCCNC(=O)Cc1cn(CCn2ccc3ccccc32)c2ccccc12 | – | logIC50 [3]: 1.61
CCCNCc1ccc2nc3ccc4cc5cc(CNCCC)ccc5nc4c3cc2c1 | -0.52 | –
COc1ccc2c(ccc3c2[nH]c2c4ccccc4nc(NCCCN(C)C)c32)c1 | 0 | –
Cc1c2n(c3ccccc13)CCCn1c-2c(CC(=O)NCCCCCCCCCCCC(=O)O)c2ccccc21 | – | logIC50 [3]: 1.91
O=C(O)CCCCCCCCCCCNC(=O)Cc1cn(CCCn2ccc3ccccc32)c2ccccc12 | – | logIC50 [3]: 1.96
C[N+]1(CCC(=O)Nc2ccc3c(c2)C(=O)c2cc(NC(=O)CC[N+]4(C)CCOCC4)ccc2-3)CCOCC1 | 1.44 | –
CN(C)CCCNCc1cc2nc3ccccc3cc2c2cc3ccccc3nc12 | -0.12 | –
O=C(O)CCCCCCCCCCCNC(=O)Cc1c2n(c3ccccc13)CCn1c-2cc2ccccc21 | – | logIC50 [4]: 1.79
Cc1oc2nc1-c1nc(co1)-c1nc(co1)-c1nc(co1)-c1nc(co1)-c1nc(co1)C1=NC(CS1)c1nc-2c(C)o1 (stereo unspecified) | -2.3 | –
O=C(CCN1CCCCC1)Nc1ccc2c(c1)C(=O)c1cc(NC(=O)CCN3CCCCC3)ccc1-2 | 0.95 | –
C[N+]1(CCC(=O)Nc2ccc3c(c2)C(=O)c2cc(NC(=O)CC[N+]4(C)CCCCC4)ccc2-3)CCCCC1 | 1.32 | –
CN1CCN(CCC(=O)Nc2ccc3c(c2)C(=O)c2cc(NC(=O)CCN4CCN(C)CC4)ccc2-3)CC1 | 1.64 | –
CN(C)CCC(=O)Nc1ccc2c(c1)C(=O)c1cc(NC(=O)CCN(C)C)ccc1-2 | 1.21 | –
C[N+](C)(C)CCC(=O)Nc1ccc2c(c1)C(=O)c1cc(NC(=O)CC[N+](C)(C)C)ccc1-2 | 1.27 | –
C[N+]1(CCC(=O)Nc2ccc3c(c2)C(=O)c2cc(NC(=O)CC[N+]4(C)CCCCC4CO)ccc2-3)CCCCC1CO (stereo unspecified) | 1.52 | –

Compound | logIC50 [1] | also measured
C[n+]1cccc2cc(Nc3nc(N)nc(Nc4ccc5c(ccc[n+]5C)c4)n3)ccc21 | -0.89 | –
CCN(CC)CCOc1ccc2c(c1)OC1C(=O)c3ccccc3C(=O)C21 (stereo unspecified) | 0.84 | –
C[N+](C)(C)c1ccc(Nc2nc(N)nc(Nc3ccc([N+](C)(C)C)cc3)n2)cc1 | 0.84 | –
O=C(CCN1CCCCC1CO)Nc1ccc2c(c1)C(=O)c1cc(NC(=O)CCN3CCCCC3CO)ccc1-2 (stereo unspecified) | 0.9 | –
Cc1cn(CCCn2cc(CC(=O)NCCCCCCCCCCCC(=O)O)c3ccccc32)c2ccccc12 | – | logIC50 [3]: 1.3
O=C(CCN1CCCCC1)Nc1ccc2c(c1)C(=O)c1ccc(NC(=O)CCN3CCCCC3)cc1C2=O | – | logIC50 [2]: 0.65
CN(C)CCCNCc1ccc2nc3c(ccc4cc5cc(CNCCCN(C)C)ccc5nc43)cc2c1 | -0.04 | –
CC[N+](C)(CC)CCC(=O)Nc1ccc2c(c1)C(=O)c1cc(NC(=O)CC[N+](C)(CC)CC)ccc1-2 | 1.4 | –
O=C(O)CCCCCCCCCCCNC(=O)Cc1cn(CCCOc2ccccc2)c2ccccc12 | – | logIC50 [3]: 1.51
O=C(CCN1CCCCCC1)Nc1ccc2c(c1)C(=O)c1ccc(NC(=O)CCN3CCCCCC3)cc1C2=O | – | logIC50 [2]: 1.11
c1ccc2nc3cc(CNCCN4CCCCC4)c4nc5ccccc5cc4c3cc2c1 | 0.3 | –
CCCNCc1ccc2nc3c(ccc4cc5cc(CNCCC)ccc5nc43)cc2c1 | -0.3 | –
O=C(CCN1CCCC1)Nc1ccc2cc3ccc(NC(=O)CCN4CCCC4)cc3nc2c1 | – | logIC50 [2]: 0.72
O=C(CCN1CCCCCC1)Nc1ccc2cc3ccc(NC(=O)CCN4CCCCCC4)cc3nc2c1 | – | logIC50 [2]: 0.49
O=C(CCN1CCCCC1CCO)Nc1ccc2c(c1)C(=O)c1cc(NC(=O)CCN3CCCCC3CCO)ccc1-2 (stereo unspecified) | 1.22 | –
O=C(O)CCCCCCCCCCCNC(=O)Cc1cn(CCOc2cccc3ccccc23)c2ccccc12 | – | logIC50 [3]: 1.54
O=C(CCN1CCC(O)CC1)Nc1ccc2c(c1)C(=O)c1cc(NC(=O)CCN3CCC(O)CC3)ccc1-2 | 1.27 | –
CN(C)CCCNc1nc2ccccc2c2[nH]c3c4cc([N+](=O)[O-])ccc4ccc3c12 | -0.3 | –
CCCNCc1ccc2nc3ccc4nc5ccc(CNCCC)cc5cc4c3cc2c1 | 0 | –
CCC1CCCCN1CCC(=O)Nc1ccc2c(c1)C(=O)c1cc(NC(=O)CCN3CCCCC3CC)ccc1-2 (stereo unspecified) | 1.15 | –
CC1CCCCN1CCC(=O)Nc1ccc2c(c1)C(=O)c1cc(NC(=O)CCN3CCCCC3C)ccc1-2 (stereo unspecified) | 1.08 | –
O=C(CCN1CCCC1)Nc1ccc2c(c1)C(=O)c1ccc(NC(=O)CCN3CCCC3)cc1C2=O | – | logIC50 [2]: 0.25
O=C(O)CCCCCCCCCCCNC(=O)Cc1cn(CCCOC2CCCCC2)c2ccccc12 | – | logIC50 [3]: 1.83
